From PMC11678797, “A Repurposed Drug Selection Pipeline to Identify CNS-Penetrant Drug Candidates for Glioblastoma” (Pharmaceuticals, 2024)

Target: T1, human BCRP (ABCG2) (Homo sapiens, UniProt Q9UNQ0)
T1 construct: expressed in transfected cells; host or cells: MDCK type II (canine kidney) cells transduced with human ABCG2 (MDCK-BCRP)
T1 sequence (Q9UNQ0 1-655): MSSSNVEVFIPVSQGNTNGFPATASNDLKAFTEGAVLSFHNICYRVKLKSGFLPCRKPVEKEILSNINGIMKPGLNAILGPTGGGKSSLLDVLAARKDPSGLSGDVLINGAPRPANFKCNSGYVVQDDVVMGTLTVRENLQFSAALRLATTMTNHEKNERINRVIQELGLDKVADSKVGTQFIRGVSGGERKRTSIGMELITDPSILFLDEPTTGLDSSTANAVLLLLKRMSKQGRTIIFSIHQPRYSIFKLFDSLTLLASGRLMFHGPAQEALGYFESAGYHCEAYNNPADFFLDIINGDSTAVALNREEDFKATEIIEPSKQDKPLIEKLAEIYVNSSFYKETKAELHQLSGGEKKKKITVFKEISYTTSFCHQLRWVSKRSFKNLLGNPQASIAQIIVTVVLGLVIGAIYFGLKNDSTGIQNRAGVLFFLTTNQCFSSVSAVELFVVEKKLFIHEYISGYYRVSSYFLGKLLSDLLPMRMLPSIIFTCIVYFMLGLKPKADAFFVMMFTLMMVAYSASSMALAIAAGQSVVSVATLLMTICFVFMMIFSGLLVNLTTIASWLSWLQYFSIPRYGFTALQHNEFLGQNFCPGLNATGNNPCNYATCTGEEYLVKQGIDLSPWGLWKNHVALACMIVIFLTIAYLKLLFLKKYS
Experiment: Concentration equilibrium transport assay (CETA), MDCK cells transduced with human ABCG2, with zosuquidar
Assay type: in vitro ADME
Conditions: omacetaxine 100 nM, zosuquidar 1 μM, up to 4 h
Procedure: In vitro transport studies were performed using the LLC pig kidney cell line (LLC-PK1) and sub-lines transduced with murine Abcb1a (LLC-Mdr1a) or human ABCB1 (LLC-MDR1). Similarly, in vitro transport studies were conducted in the parental Madin–Darby canine kidney (MDCK) type II cell line (MDCK-Parent) and murine Abcg2 (MDCK-Bcrp1) or human ABCG2 (MDCK-BCRP) transduced sublines. Concentration equilibrium transport assays (CETA) were performed as previously described. Briefly, cells were grown on polycarbonate membrane filters (3.0 µm pores, 24 mm diameter; Costar Corning, NY, USA) for 4 days. Next, 2 mL of MEM medium containing 10% FCS and omacetaxine (100 nM) was added to both the apical and basal compartments. Then, [14C]-inulin ([…]) was added basolateral to check the membrane integrity. Zosuquidar 1 μM was added to all wells containing MDCK cells to inhibit endogenous (canine) ABCB1. […] The integrity of the membrane was checked by taking 20 μL samples from both apical and basolateral sides for radioactivity counting. […] OMA concentrations were measured using an LC-MS/MS system that consisted of an UltiMate 3000 LC System (Dionex, Sunnyvale, CA, USA) and an API 4000 mass spectrometer (Sciex, Framingham, MA, USA).

substrate of BCRP (translocation between apical and basolateral compartments): not a substrate
Structure (SMILES): COC(=O)C[C@](O)(CCCC(C)(C)O)C(=O)O[C@@H]1C(OC)=C[C@]23CCCN2CCc2cc4c(cc2[C@H]13)OCO4 [OMA, Omacetaxine mepesuccinate]
